Measurements as given in article PMC6843832, “Synthesis of Novel Analogs of Thieno[2,3-d] Pyrimidin-4(3H)-ones as Selective Inhibitors of Cancer Cell Growth” (Biomolecules, 2019).

Legend:
A549 cells [1] = test: MTT assay, A549 cells; assay type: cell-based; conditions: Homo sapiens, A549, 72 h, human non-small cell lung cancer cells, read-out: Cytotoxic activity (IC50) A549
Method: (§1) Primary human liver HL-7702 cells were purchased from SIBS (Shanghai Institutes for Biological Sciences, Shanghai, China) while MCF-7, A549, PC-9 and PC-3 cells were from ATCC (American Type Culture Collection, Rockville, MD, USA). HL-7702, PC-9 and A549 cells were incubated with Roswell Park Memorial Institute (RPMI) 1640 medium and MCF-7 were cultured in Dulbecco’s Modified Eagle’s Medium (DMEM) supplemented with 10% heat-inactivated fetal bovine serum (FBS) and 1% antibiotics (penicillin and streptomycin). PC-3, a human prostate adenocarcinoma cell, was maintained in Ham’s F-12 Medium supplemented with 10% FBS, 1% penicillin/streptomycin and 1% glutamine. All cells were cultured at 37 °C in an incubator containing 5% CO2. The cell viability was determined by using the MTT (methyl thiazolyl tetrazolium bromide) assay. Briefly, cells were seeded in 96-well plates (4 × 10^3 cells/well) overnight and exposed to the synthesized compounds with various concentrations. Camptothecin and dimethyl sulfoxide (DMSO) served as a positive control and a negative control respectively. After 72 h of incubation, 20 μL of MTT (5 mg/mL in phosphate buffer saline (PBS)) were added into each well. Dissolved yellowish MTT is converted to an insoluble purple formazan during incubation (4 h). In order to dissolve the formazan crystals, 100 μL of lysis solution (10% SDS (sodium dodecyl sulfate)-5% isobutyl alcohol-0.01M HCl) was added into per well. Finally, the optical density (OD) of solution in the plates was measured using a microplate reader at 570 nm after dissolving overnight. Cell viability was calculated by using the following formula: […].

Bcl-2 = test: Western blotting, Bcl-2; assay type: cell-based, human; conditions: A549 cells, 0-10 μM, 72 h, western blot
Method: (§2) Total protein samples were extracted from A549 cells. cells were treated with different concentrations of compounds for 72 h, then the cells were collected, homogenized in 100 µL of ice-cold lysis buffer containing 2% SDS (sodium dodecyl sulfate), 10% DTT (dithiothreitol), 10% glycerin, 0.1% BPB (bromophenol blue) and 50mM Tris buffer (pH 6.8). After cell lyses were boiled for 30 min at 100 °C, samples were resolved on 12% SDS-PAGE (polyacrylamide gel) and then transferred to nitrocellulose (NC) membranes. Then the membranes were blocked with 5% skim milk at room temperature for 1 h. After incubation, the membranes were probed by primary antibodies for β-actin, Bax (BCL2-associated X protein) and Bcl-2 (B-cell lymphoma-2) at 4 °C overnight. After the blots were washed in TBST (Tris-base solution-Tween 20), membranes were incubated with HRP (horseradish peroxidase) -conjugated IgG secondary antibodies for 1 h at 37 °C. Finally, a Chemi-Doc image analyzer was used to determine protein expression levels by analyzing the signals captured on the NC membranes.

MTT assay, HL-7702 cells = assay type: cell-based, human; conditions: HL-7702 cells (normal liver cells); normal human liver cells, MTT, 72 h; read-out: Cytotoxic activity (IC50) HL-7702
Method: as §1

HL-7702 cells = test: MTT assay, HL-7702 cells; assay type: cell-based, human; conditions: HL-7702, MTT
Method: as §1

PC-9 cells = test: MTT assay, PC-9 cells; assay type: cell-based; conditions: human non-small cell lung cancer cells, 72 h, read-out: Cytotoxic activity (IC50) PC-9
Method: as §1

Bax = test: Western blotting, Bax; assay type: cell-based, human; conditions: A549 cells, 0-10 μM, 72 h, western blot
Method: as §2

PC-3 cells = test: MTT assay, PC-3 cells; assay type: cell-based; conditions: human prostate cancer cells, 72 h, read-out: Cytotoxic activity (IC50) PC-3
Method: as §1

A549 cells [2] = test: Hoechst 33258 staining (apoptosis); assay type: cell-based, human; conditions: 72 h
Method: For Hoechst staining, A549 cells were seeded in 6-well plates (8 × 10^4 cells/well) and allowed to adhere overnight. Compounds at a final concentration of 10, 5 and 1 µM were used to treat cells in the exponential growth phase for 72 h. Following this, the staining solution was added to the well plates and held at room temperature for 10 min. Afterwards, Hoechst 33258 was added to dye the cells for 10 min at room temperature in the dark. After washing two times with PBS, the treated cells were photographed under a semi-electrical fluorescence microscope (Olympus BX53, Olympus, Tokyo, Japan), to capture images of the stained nuclei from each well from randomly selected regions.

caspase-3 = test: Caspase-3 activity assay; assay type: cell-based, human; conditions: A549 cells, 0, 1, 5 μM, 48 h
Method: Briefly, A549 cells were cultured at 2 × 10^5 cells/well in 6-well plates and incubated with different concentrations of compounds (0, 1, 5 µM) for 48 h. At the end of the treatment, cells were harvested and lysed by the addition of lysis buffer from the caspase-3 assay kit. Aliquots of cell lysate were added to 96-well plates and the supernatant of cell lysates were mixed with buffer containing the above substrate peptides for 2 h at 37 °C. The absorbance in each well was measured at 405 nm using a microplate reader.

A549 cells [3] = test: Colony formation assay; assay type: cell-based; conditions: Homo sapiens, read-out: inhibition rate of colony formation
Method: The colony formation assay was executed to assess the colony forming ability of cancer cells treated by compounds. After being trypsinized and counted, the cells were seeded again on a 6-well plate with 4000 cells/well. Subsequently, cells were incubated at 37 °C in 5% CO2 overnight with medium. Afterwards, the cells were being treated with drugs (1 μM, 10 μM) and camptothecin (0.1 μM) for 10 days. Then, fresh PBS (1 mL/well) was added to wash the cells twice, before fixing with the stationary solution (10% acetic acid- 10% methanol- 80% dd H2O, 1 mL/well) at room temperature for 30 min. After that, 1% crystal violet was used to stain the cells. The cell viability was evaluated by the number of purple colonies.

MCF-7 cells = test: MTT assay, MCF-7 cells; assay type: cell-based; conditions: MCF7, human breast cancer cells, 72 h, read-out: Cytotoxic activity (IC50) MCF-7
Method: as §1

O=c1c2c3c(sc2nc(-c2ccccc2)n1CCc1ccc(O)cc1)CCCCC3 [Compound 15]
IC50 (A549 cells [1]): 0.94 ± 0.01 µM
Bcl-2 protein expression level (Bcl-2): reduction of Bcl-2 level
Bcl-2/Bax ratio (Bcl-2; compared to control): significant decrease in the proportion of Bcl-2/Bax
IC50 at 72 h (MTT assay, HL-7702 cells): > 100 µM
toxicity to normal human liver cells (HL-7702 cells): no toxicity to normal human liver cells
IC50 (PC-9 cells): > 100 µM
Bax protein expression level (Bax): increase of Bax level
IC50 (PC-3 cells): 47.5 ± 3.39 µM
nuclear morphology, Hoechst 33258 staining (A549 cells [2]; 1 μM): brightly stained nuclei due to chromatin condensation
nuclear morphology, Hoechst 33258 staining (A549 cells [2]; 5 and 10 μM): cell membrane rupture and contraction were observed
caspase-3 activity (caspase-3): accumulation of caspase-3 in the cytosol
inhibition at 1 µM (A549 cells [3]): 56%
IC50 (MCF-7 cells): 17.3 ± 0.2 µM
